From patent US9546367B2, “siRNA compositions and methods for inhibiting gene expression in tumor initiating cells of breast cancer” (priority 2011, dated 2017)

Key:
SUM159 [1] = assay: high-throughput lentiviral shRNA mammosphere formation (MSFE) screen; type: cell-based, human; details: positive control; for mammosphere forming efficiency: increasing concentration, SUM159 cells
BT549 [2] = assay: as above; type: cell-based, human; details: Z-score of mammosphere formation vs plate mean, one shRNA per well, 2000 cells/well, 8 biological replicates
Protocol: (§1) In previously published results, the inventors described a breast cancer stem cell signature that comprised a set of 493 statistically significant, differentially expressed genes that were present in a tumorigenic subpopulation of breast cancer cells (Creighton et al. 2009). The biological confirmation of the significance of these differentially expressed genes was conducted using a shRNA-based gene knockdown approach, correlating the selective knockdown of target genes with mammosphere formation efficacy (MSFE), an in vitro assay for self-renewal. A library of shRNAs which targets the entire human genome (Open Biosystems, Boston, Mass., USA) was used to create a sub-library of shRNAs against the 493 differentially expressed genes in the tumorigenic signature. A total of 1124 shRNAs (˜2-3 shRNA per gene), and appropriate control shRNAs that were encoded in the pGIPZ vector with a green fluorescent protein tag were selected and arrayed on 13×96-well microtiter plates.
(§2) These shRNAs were packaged into lentiviral particles using a second-generation lentiviral packaging system (Addgene, Cambridge, Mass., USA) in 293T cells plated on 96-well plates. The supernatant was then harvested for transduction and expression in a wide range of cell types. Specifically, lentiviruses were collected 3 days after transfection, frozen at −80° C. immediately, and then thawed for transducing two different breast cancer cell lines SUM159PT (American Type Culture Collection; Manassas, Va., USA) and BT549 (ATCC) with 8 biological replicates. Cells were plated in 13×96-well ultra-low attachment plates, at 2000 cells/well, with one shRNA being transduced per well using the Biomek 3000 automated workstation (Beckman Coulter; Brea, Calif. USA), in order to ensure reproducibility and accuracy.
(§3) The lentiviral transduction rate (˜80-90%) in these cell lines was evaluated by fluorescence microscopy using the GFP tag in the pGIPZ vector. MSFE was then assessed in a high throughput screening approach of all 493 genes.
(§4) For shRNA knockdown studies, the mean and the standard deviation from all measurements of each plate for each replicated experiment were estimated. The Z-score was calculated by subtracting the mean of the plate values and dividing this difference by the standard deviation. […] For tumor volume fold-change comparisons, one-way Anova was used to compare different treatment groups. This was followed by Tukey analysis for a pairwise comparison of different treatment groups. For the tumor recurrence studies, events were defined as first appearance of tumor >50 mm^3 after completion of treatment. Time to recurrence was derived by Kaplan-Meier method, with differences compared using the generalized Mann-Whitney-Wilcoxon rank-sum test.
(§5) Previously, a breast cancer stem cell signature was identified comprising 493 statistically significant differentially expressed genes (Creighton et al., 2009). The biological significance of this gene set was confirmed by conducting shRNA-based gene knockdown, and correlating the selective knockdown of target genes using mammosphere-forming efficiency (MSFE), an in vitro assay for self-renewal. As described in the previous examples, a library of shRNAs targeting the entire human genome (Open Biosystems, MA, USA) was used to create a sub-library of shRNAs against the differentially expressed genes in the tumorigenic signature. Using these genes along with appropriate control shRNAs, a total of 1124 shRNAs (˜2-3 shRNA per gene) were tagged with green fluorescent protein, and encoded in pGIPZ vector, and then arrayed on to 13×96-well plates. These shRNAs were packaged into lentiviral particles using a second-generation lentiviral packaging system (Thermo-Fischer, USA) in 293T cells plated in 96-well plates. The supernatant was then harvested for transduction and expression in a wide range of cell types. […]

SUM159 [3] = assay: as above; type: cell-based, human; details: Z-score of mammosphere formation vs plate mean, one shRNA per well, 2000 cells/well, 8 biological replicates
Protocol: as §1, §2, §3, §4, §5

[4] = test system: BCM-2665A human primary tumor; assay: docetaxel treatment of BCM-2665A xenograft, tumor growth and ALDF staining; type: in vivo, SCID/Beige mice
Protocol: SCID/Beige mice were inoculated with BCM-2665A human primary tumor tissues. After tumors reached 1 cm^3 in size, the tumor mice were treated with 20 mg/kg docetaxel. […] The residual tumor tissues were collected at the end of the experiment, treated with collagenase, and single cells were stained with Aldefluor® reagent (ALDF). Positive staining by ALDF is one of the characteristic markers for TIC. The percentage of ALDF-positive cells was higher in the docetaxel-treated tumor, than in the control samples.

BT549 [5] = assay: in vitro MSFE with nanoliposome/silicon particle packaged siRNA; type: cell-based, human; details: BT549
Protocol: “Claudin-low”-like human breast cancer cell lines (SUM159 and BT549) were plated in 24-well ultralow attachment plates with mammary epithelial growth medium (MEGM) (5,000 cells/well). Both cell lines were then treated with 1 μg/well/6 wells of silicon particles loaded with DOPC nanoliposomes/siRNA. The primary MSs were allowed to grow for 3 days. MFs were counted on Day 3 with a GelCount colony counter (Oxford Optronix, Oxford, UK). Mammosphere-Forming Efficiency (MSFE) was calculated by dividing the number of MSs by the number of seeded cells. In addition, established MSs were serially passaged by dissociation, and single cells were re-plated on fresh 24-well, ultra-low-attachment plates to form secondary mammospheres, which were counted after 3 days. One-way ANOVA and Tukey tests were performed. A p-value of less than 0.05 was considered significant.
To develop a more clinically relevant model, two of the identified candidates (MLF2 and RPL39L) were compared to Stat3 (positive control), and their siRNA sequences identified within the shRNA vector. These siRNAs were then packaged in nanoliposomes and tested for MSFE using the same protocol as above, except for the addition of packaged siRNA instead of lentiviral shRNA. (N.B. wherein shRNA requires a promoter and needs to be transcribed in order to function, siRNA functions by itself once incorporated into recipient cells).
To develop siRNA nanotherapeutics targeting TIC, studies have been conducted to confirm the essential roles of the candidate TIC genes. Exemplary siRNA oligonucleotides specific for STAT3, MFL2, and RPL39L were formulated into nanoliposomes, which were then loaded into porous silicon MSV particles. For in vitro assay, BT549 and SUM159 cells were incubated with MSV/siRNA, and primary and secondary MSFE was measured. […] For in vivo assessment, SCID/Beige mice were inoculated with SUM159 tumor, and treated with MDS/siRNA delivered by tail vein injection. Cells were then isolated from tumor mice 3 weeks later, and MSFE was measured. […] These studies indicate that 1) MDS/siRNA could successfully be delivered to tumor tissues effectively in vivo, 2) uptake of MDS/siRNA by TIC was efficient, and 3) MFL2 and RPL39L were essential genes for TIC.
The siRNA sequences of two candidate genes RPL39 and MLF2 were packaged in nanoliposomes and the effects on MSFE determined in vitro, as described above, using packaged siRNA instead of lentiviral shRNA.

MDAMB231 lung metastasis = assay: in vivo lung metastasis of luciferase-tagged MDAMB231, IVIS imaging; parameters: species or system SCID-beige mice; details: siRNA in cationic liposomes twice weekly, week six
Protocol: 3 million cells MDAMB231 cancer cells, stably transfected with luciferase, were injected in the mammary fat pad of SCID-beige mice and were randomized into 3 groups: (1) vehicle+scrambled siRNA, (2) vehicle+MLF2 siRNA, and (3) vehicle+RPL39 siRNA, and treated with siRNA packaged liposomes twice weekly for 6 weeks. The mice were injected with D-luciferin every week for 6 weeks to determine lung metastases using IVIS imaging (Perkin Elmer). The primary tumors were removed by week 5 to continue this study without increasing the primary tumor burden to 10% of body weight.
To assess the effects of RPL39 and MLF2 siRNA on lung metastasis, SCID-Beige mice were injected with luciferase-tagged MDAMB231 cells and treated with siRNA against RPL39 or MLF2 packaged in cationic liposomes, twice weekly simultaneously, and then sacrificed at week six.

O=S1(=O)N[C@@]2(CN1CC(F)(F)F)[C@@H]1CC[C@H]2Cc2ccc(/C=C/CN3CCC(C(F)(F)F)CC3)cc2C1 [MRK-003]
MS formation (SUM159 [1]; 10 μM concentration): dramatically reduced
mammosphere forming efficiency (SUM159 [1]): dose-dependent decrease
mammosphere forming efficiency (SUM159 [1]; listed as notch inhibitor): inhibiting MS formation
BT 549 Z-score (BT549 [2]; listed as AA_GSI_pos1_1): −0.731
BT 549 Z-score (BT549 [2]; listed as AA_GSI_pos1_6): −0.688
BT 549 Z-score (BT549 [2]; listed as AA_GSI_pos1_8): −0.519
BT 549 Z-score (BT549 [2]; listed as AA_GSI_pos1_10): −0.719
BT 549 Z-score (BT549 [2]; listed as AA_GSI_pos1_11): −0.675
BT 549 Z-score (BT549 [2]; listed as AA_GSI_pos2_5): −0.463
BT 549 Z-score (BT549 [2]; listed as AA_GSI_pos2_8): −0.894
BT 549 Z-score (BT549 [2]; listed as AA_GSI_pos2_10): −0.685
BT 549 Z-score (BT549 [2]; listed as AA_GSI_pos2_13): −0.397
SUM 159 Z-score (SUM159 [3]; listed as AA_GSI_pos1_1): −2.026
SUM 159 Z-score (SUM159 [3]; listed as AA_GSI_pos1_6): −1.904
SUM 159 Z-score (SUM159 [3]; listed as AA_GSI_pos1_8): −1.850
SUM 159 Z-score (SUM159 [3]; listed as AA_GSI_pos1_10): −1.697
SUM 159 Z-score (SUM159 [3]; listed as AA_GSI_pos1_11): −2.078
SUM 159 Z-score (SUM159 [3]; listed as AA_GSI_pos2_5): −1.923
SUM 159 Z-score (SUM159 [3]; listed as AA_GSI_pos2_8): −1.971
SUM 159 Z-score (SUM159 [3]; listed as AA_GSI_pos2_10): −2.139
SUM 159 Z-score (SUM159 [3]; listed as AA_GSI_pos2_13): −1.857

CC(=O)O[C@@]12CO[C@@H]1C[C@H](O)[C@@]1(C)C(=O)[C@H](O)C3=C(C)[C@@H](OC(=O)[C@H](O)[C@@H](NC(=O)OC(C)(C)C)c4ccccc4)C[C@@](O)([C@@H](OC(=O)c4ccccc4)[C@H]21)C3(C)C [docetaxel]
tumor growth ([4]; 20 mg/kg docetaxel, next 14 days): Significant inhibition
percentage of ALDF-positive cells ([4]; residual tumor after 20 mg/kg docetaxel, vs control samples): higher

scrambled siRNA: control siRNA; sense SEQ ID NO: 1 ATCTCGCTTGGGCGAGAGTAAG, antisense SEQ ID NO: 17 CTTACTCTCGCCCAAGCGAGAG (listed as DNA, chemistry not given here) [reference compound]
MSFE, primary MSs (BT549 [5]; 1 μg/well silicon particles loaded with DOPC nanoliposomes/siRNA, counted Day 3): 2.4%
MSFE, secondary MSs (BT549 [5]; silicon particles loaded with DOPC nanoliposomes/siRNA, re-plated, counted after 3 days): 1%
lung metastasis (animals with metastasis / animals), IVIS imaging (MDAMB231 lung metastasis): 12/12
